Measured values as given in US9169254B2, “Spiroimidazolone derivative” (Chugai Seiyaku Kabushiki Kaisha, priority 2009, dated 2015).

target: T1, human PTH1 receptor (Homo sapiens, UniProt Q03431); assay: In vitro cAMP signal activity in HKRK-B7 cells (LLC-PK1 cells overexpressing the human PTH1 receptor); type: cell-based; conditions: HKRK-B7 cells; compound at 1×10^−3 M; cAMP produced as percentage of that produced by hPTH(1-34) at 100 nM
T1 sequence (Q03431 27-593): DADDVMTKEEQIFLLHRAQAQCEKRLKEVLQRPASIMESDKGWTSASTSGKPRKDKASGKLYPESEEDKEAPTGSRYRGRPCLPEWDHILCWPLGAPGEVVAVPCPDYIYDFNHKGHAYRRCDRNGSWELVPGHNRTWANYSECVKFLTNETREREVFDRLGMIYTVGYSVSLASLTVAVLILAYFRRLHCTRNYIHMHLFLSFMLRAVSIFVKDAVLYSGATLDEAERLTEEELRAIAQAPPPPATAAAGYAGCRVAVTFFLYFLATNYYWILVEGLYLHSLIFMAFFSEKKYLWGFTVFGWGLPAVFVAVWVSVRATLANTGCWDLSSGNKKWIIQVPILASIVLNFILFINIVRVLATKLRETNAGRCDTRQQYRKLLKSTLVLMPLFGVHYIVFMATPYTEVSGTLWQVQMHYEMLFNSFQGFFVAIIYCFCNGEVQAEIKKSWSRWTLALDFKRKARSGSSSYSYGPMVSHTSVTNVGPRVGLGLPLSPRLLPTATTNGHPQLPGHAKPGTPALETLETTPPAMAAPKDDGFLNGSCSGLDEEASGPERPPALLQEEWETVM

Q: With `Cc1cc(C(=O)N2CCC(O)CC2)cc(C)c1/C=C/S(=O)(=O)N1CCC2(CC1)N=C(c1ccc(F)c(C(F)(F)F)c1)NC2=O` [Compound 535, 2-(4-fluoro-3-trifluoromethyl-phenyl)-8-{(E)-2-[4-(4-hydroxy-piperidine-1-carbonyl)-2,6-dimethyl-phenyl]-ethenesulfonyl}-1,3,8-triaza-spiro[4.5]dec-1-en-4-one] as the compound, how does the “cAMP production activity (%)” value read?
A: Its value is 83%.

Q: With `Cc1cc(N(C)C(N)=O)cc(C)c1CC[S@TB4](=O)(=O)N1CCC2(CC1)N=C(CCC(F)(F)CCCCCC(F)(F)F)NC2=O` [Compound 1147, 1-(3,5-dimethyl-4-{2-[4-oxo-2-(3,3,9,9,9-pentafluoro-nonyl)-1,3,8-triaza-spiro[4.5]dec-1-ene-8-sulfonyl]-ethyl}-phenyl)-1-methyl-urea] as the compound, how does the “cAMP production activity (%)” value read?
A: The value was 112%.

Q: With `O=C1NC(c2cccc(OC(F)(F)F)c2)=NC12CCN(S(=O)(=O)/C=C/c1cc(F)c(OCCC(O)CO)c(F)c1)CC2` (centres unmarked) [Compound 600, 8-{(E)-2-[4-(3,4-dihydroxy-butoxy)-3,5-difluoro-phenyl]-ethenesulfonyl}-2-(3-trifluoromethoxy-phenyl)-1,3,8-triaza-spiro[4.5]dec-1-en-4-one] as the compound, how does the “cAMP production activity (%)” value read?
A: Its value is 67%.

Q: With `Cc1cc(C(=O)N2CCC(O)(CF)CC2)cc(C)c1/C=C/S(=O)(=O)N1CCC2(CC1)N=C(C1CCC(CCC(F)(F)F)CC1)NC2=O` (centres unmarked) [Compound 990, 8-{(E)-2-[4-(4-fluoromethyl-4-hydroxy-piperidine-1-carbonyl)-2,6-dimethyl-phenyl]-ethenesulfonyl}-2-[4-(3,3,3-trifluoro-propyl)-cyclohexyl]-1,3,8-triaza-spiro[4.5]dec-1-en-4-one] as the compound, how does the “cAMP production activity (%)” value read?
A: Its value is 87%.

Q: How did the “cAMP production activity (%)” value turn out when `Nc1cccc(CCCS(=O)(=O)N2CCC3(CC2)N=C(C2CCCCC2)NC3=O)c1` [Compound 328, 8-[3-(3-Amino-phenyl)-propane-1-sulfonyl]-2-cyclohexyl-1,3,8-triaza-spiro[4.5]dec-1-en-4-one] was run?
A: Its value is 41%.

Q: `CC(=O)Nc1ccc(CCS(=O)(=O)N2CCC3(CC2)N=C([C@H]2CC[C@H](OCCCF)CC2)NC3=O)c(C)c1` [Compound 915, N-[4-(2-{2-[4-(3-fluoro-propoxy)-cyclohexyl]-4-oxo-1,3,8-triaza-spiro[4.5]dec-1-ene-8-sulfonyl}-ethyl)-3-methyl-phenyl]-acetamide] was tested. Which “cAMP production activity (%)” value did it give?
A: The value was 61%.

Q: Which “cAMP production activity (%)” value does the source give for `CN(C)CCNC(=O)Cc1ccc(/C=C/S(=O)(=O)N2CCC3(CC2)N=C(C2CCCCC2)NC3=O)cc1` [Compound 208, 2-{4-[(E)-2-(2-cyclohexyl-4-oxo-1,3,8-triaza-spiro[4.5]dec-1-ene-8-sulfonyl)-vinyl]-phenyl}-N-(2-dimethylamino-ethyl)-acetamide] here?
A: Its value is 22%.

Q: For `Cc1cc(C(=O)N2CCC(C)(O)CC2)cc(C)c1/C=C/S(=O)(=O)N1CCC2(CC1)N=C(c1ccc(Cl)c(OCCCC(F)(F)F)c1)NC2=O` [Compound 1227, 2-[4-chloro-3-(4,4,4-trifluoro-butoxy)-phenyl]-8-{(E)-2-[4-(4-hydroxy-4-methyl-piperidine-1-carbonyl)-2,6-dimethyl-phenyl]-ethenesulfonyl}-1,3,8-triaza-spiro[4.5]dec-1-en-4-one], which “cAMP production activity (%)” value is on record?
A: The value was 77%.

Q: For `Cc1cc(C(=O)N(C)CCCN(C)C)cc(C)c1/C=C/S(=O)(=O)N1CCC2(CC1)N=C(c1cccc(C(F)(F)F)c1)NC2=O` [Compound 391, N-(3-dimethylamino-propyl)-3,5,N-trimethyl-4-{(E)-2-[4-oxo-2-(3-trifluoromethyl-phenyl)-1,3,8-triaza-spiro[4.5]dec-1-ene-8-sulfonyl]-vinyl}-benzamide], which “cAMP production activity (%)” value is on record?
A: The value was 26%.

Q: How did the “cAMP production activity (%)” value turn out when `Cc1cc(N(C)C(N)=O)cc(C)c1CC[S@TB4](=O)(=O)N1CCC2(CC1)N=C(CCCCCCCCCCCF)NC2=O` [Compound 1153, 1-(4-{2-[2-(11-fluoro-undecyl)-4-oxo-1,3,8-triaza-spiro[4.5]dec-1-ene-8-sulfonyl]-ethyl}-3,5-dimethyl-phenyl)-1-methyl-urea] was run?
A: The value was 106%.

Q: Which “cAMP production activity (%)” value does the source give for `O=C(CCCc1ccccc1)N1CCCC(C2=NC3(CCN(S(=O)(=O)CCc4cccc5ccccc45)CC3)C(=O)N2)C1` (centres unmarked) [Compound 437, 8-(2-naphthalen-1-yl-ethanesulfonyl)-2-[1-(4-phenyl-butyryl)-piperidin-3-yl]-1,3,8-triaza-spiro[4.5]dec-1-en-4-one] here?
A: The value was 45%.

Q: `Cc1cc(C(=O)N(C)C)ccc1CCS(=O)(=O)N1CCC2(CC1)N=C(N(C)c1ccccc1)NC2=O` [Compound 1397, 3,N,N-trimethyl-4-{2-[2-(methyl-phenyl-amino)-4-oxo-1,3,8-triaza-spiro[4.5]dec-1-ene-8-sulfonyl]-ethyl}-benzamide] was tested. Which “cAMP production activity (%)” value did it give?
A: The value was 24%.

Q: With `Cc1cc(C(=O)N2CCC(O)(CF)CC2)cc(C)c1/C=C/S(=O)(=O)N1CCC2(CC1)N=C(C1CCC(C)CC1)NC2=O` (centres unmarked) [Compound 1000, 8-{(E)-2-[4-(4-fluoromethyl-4-hydroxy-piperidine-1-carbonyl)-2,6-dimethyl-phenyl]-ethenesulfonyl}-2-(4-methyl-cyclohexyl)-1,3,8-triaza-spiro[4.5]dec-1-en-4-one] as the compound, how does the “cAMP production activity (%)” value read?
A: Its value is 86%.

Q: For `O=C(CO)Nc1ccc(/C=C/S(=O)(=O)N2CCC3(CC2)N=C(C2CCCCC2)NC3=O)c(C(F)(F)F)c1` [Compound 196, N-{4-[(E)-2-(2-cyclohexyl-4-oxo-1,3,8-triaza-spiro[4.5]dec-1-ene-8-sulfonyl)-vinyl]-3-trifluoromethyl-phenyl}-2-hydroxy-acetamide], which “cAMP production activity (%)” value is on record?
A: Its value is 66%.

Q: How did the “cAMP production activity (%)” value turn out when `Cc1cc(N2C(=O)N(CCO)C(C)(C)C2=O)cc(C)c1/C=C/S(=O)(=O)N1CCC2(CC1)N=C(c1cccc(OC(F)(F)F)c1)NC2=O` [Compound 714, 3-(3,5-dimethyl-4-{(E)-2-[4-oxo-2-(3-trifluoromethoxy-phenyl)-1,3,8-triaza-spiro[4.5]dec-1-ene-8-sulfonyl]-vinyl}-phenyl)-1-(2-hydroxy-ethyl)-5,5-dimethyl-imidazolidine-2,4-dione] was run?
A: Its value is 36%.

Q: How did the “cAMP production activity (%)” value turn out when `CC(=O)Nc1cc(C)c(/C=C/S(=O)(=O)N2CCC3(CC2)N=C(C2CCCCC2)NC3=O)c(C)c1` [Compound 204, N-{4-[(E)-2-(2-Cyclohexyl-4-oxo-1,3,8-triaza-spiro[4.5]dec-1-ene-8-sulfonyl)-vinyl]-3,5-dimethyl-phenyl}-acetamide] was run?
A: The value was 110%.

Q: `O=C(Cc1ccncc1)N1CCCC(C2=NC3(CCN(S(=O)(=O)CCc4cccc5ccccc45)CC3)C(=O)N2)C1` (centres unmarked) [Compound 438, 8-(2-naphthalen-1-yl-ethanesulfonyl)-2-[1-(2-pyridin-4-yl-acetyl)-piperidin-3-yl]-1,3,8-triaza-spiro[4.5]dec-1-en-4-one] was tested. Which “cAMP production activity (%)” value did it give?
A: Its value is 14%.

Q: Which “cAMP production activity (%)” value does the source give for `CC(=O)NCc1cc(C)c(/C=C/S(=O)(=O)N2CCC3(CC2)N=C(C2CCC(CCC(F)(F)F)CC2)NC3=O)c(C)c1` (centres unmarked) [Compound 558, N-[3,5-dimethyl-4-((E)-2-{4-oxo-2-[4-(3,3,3-trifluoro-propyl)-cyclohexyl]-1,3,8-triaza-spiro[4.5]dec-1-ene-8-sulfonyl}-vinyl)-benzyl]-acetamide] here?
A: The value was 74%.

Q: With `O=C1NC(C2CCCCC2)=NC12CCN(S(=O)(=O)C#Cc1cccc3[nH]ccc13)CC2` [Compound 1377, 2-Cyclohexyl-8-[2-(1H-indol-4-yl)-ethynesulfonyl]-1,3,8-triaza-spiro[4.5]dec-1-en-4-one] as the compound, how does the “cAMP production activity (%)” value read?
A: Its value is 35%.

Q: For `O=C(NCc1ccccc1)c1cccc(C2=NC3(CCN(S(=O)(=O)c4cccc(Cl)c4)CC3)C(=O)N2)c1` [Compound 350, N-benzyl-3-[8-(3-chloro-benzenesulfonyl)-4-oxo-1,3,8-triaza-spiro[4.5]dec-1-en-2-yl]-benzamide], which “cAMP production activity (%)” value is on record?
A: Its value is 5.5%.

Q: How did the “cAMP production activity (%)” value turn out when `CC(=O)N(CC(F)(F)F)c1ccc(/C=C/S(=O)(=O)N2CCC3(CC2)N=C(c2cccc(OC(F)(F)F)c2)NC3=O)c(C)c1` [Compound 613, N-(3-methyl-4-{(E)-2-[4-oxo-2-(3-trifluoromethoxy-phenyl)-1,3,8-triaza-spiro[4.5]dec-1-ene-8-sulfonyl]-vinyl}-phenyl)-N-(2,2,2-trifluoro-ethyl)-acetamide] was run?
A: The value was 44%.

Q: How did the “cAMP production activity (%)” value turn out when `Cc1cc(C(=O)N2CCC(O)(CO)CC2)cc(C)c1CCS(=O)(=O)N1CCC2(CC1)N=C(c1cccc(OC(F)(F)F)c1)NC2=O` [Compound 831, 8-{2-[4-(4-hydroxy-4-hydroxymethyl-piperidine-1-carbonyl)-2,6-dimethyl-phenyl]-ethanesulfonyl}-2-(3-trifluoromethoxy-phenyl)-1,3,8-triaza-spiro[4.5]dec-1-en-4-one] was run?
A: The value was 4.7%.

Q: `Cc1cc(C(=O)N2CCCN2)cc(C)c1CCS(=O)(=O)N1CCC2(CC1)N=C(C1CCC(CCC(F)(F)F)CC1)NC2=O` (centres unmarked) [Compound 1386, 8-{2-[2,6-dimethyl-4-(pyrazolidine-1-carbonyl)-phenyl]-ethanesulfonyl}-2-[4-(3,3,3-trifluoro-propyl)-cyclohexyl]-1,3,8-triaza-spiro[4.5]dec-1-en-4-one] was tested. Which “cAMP production activity (%)” value did it give?
A: Its value is 92%.
